“Also recorded” adds a separate entry of the source.
Key:
[1] = 3'-substituted AMSA analogues; earlier publications; cited from earlier work
P388 leukemia = P388 leukemia in vivo (increase in lifespan of mice, i.p. tumour); conditions: for active (P388): P388, at the stated dose
Lewis lung carcinoma = Lewis lung carcinoma in vivo (increase in lifespan of mice, i.v. tumour); conditions: for ILS (percentage increase in lifespan): values without asterisk, controls 17 days; for active (Lewis lung): at the stated dose
Aerobacter aerogenes = assay: Antibacterial activity
Staphylococcus aureus = assay: Antibacterial activity
Alcaligenes viscolactis = assay: Antibacterial activity
Xanthomonas phaseoli = assay: Antibacterial activity
Escherichia coli = assay: Antibacterial activity
Bacillus subtilis = assay: Antibacterial activity
[2] = system: Micrococcus lysodeikticus; assay: Antibacterial activity
Streptococcus faecalis = assay: Antibacterial activity
Neisseria catarrhalis = assay: Antibacterial activity
Sarcina lutea = assay: Antibacterial activity
mouse L1210 leukemia = mouse L1210 leukemia model; Atwell, Cain and Seelye 1972; cited from earlier work
[3] = Potency and antitumour activity in in vivo test systems (general statements)
[4] = Lewis lung, at OD on days 1, 5, 9, >40% statistically significant

## COc1cc(NS(C)(=O)=O)ccc1Nc1c2ccccc2nc2ccccc12 [m-AMSA, 4'-(9-acridinylamino)methanesulphon-m-anisidide, reference compound]
[1]
  antitumour activity / dose potency (in words): increased dose potency
P388 leukemia; P388, at OD on days 1, 5, 9, values without asterisk, >20% statistically significant, controls 11 days
  ILSmax (percentage increase in lifespan): 78%
P388 leukemia
  active (P388): Y
Lewis lung carcinoma; [4]
  ILS (percentage increase in lifespan): 38%
Lewis lung carcinoma; Lewis lung
  active (Lewis lung): Y/N
Lewis lung carcinoma; tumour implanted intravenously, ILS of 40% required for statistical significance
  Lewis lung activity (in words): minimal activity; also recorded: strictly inactive

## CNc1cc(NS(C)(=O)=O)ccc1Nc1c2ccccc2nc2c(C)cccc12 [Compound 12]
Aerobacter aerogenes
  antibacterial activity: active
Staphylococcus aureus
  antibacterial activity: active
Alcaligenes viscolactis
  antibacterial activity: active
Xanthomonas phaseoli
  antibacterial activity: active
Escherichia coli
  antibacterial activity: active
Bacillus subtilis
  antibacterial activity: active
[2]
  antibacterial activity: active
P388 leukemia; P388, at OD on days 1, 5, 9, […], >20% statistically significant
  ILSmax (percentage increase in lifespan), marked *: 157%
P388 leukemia
  active (P388): Y
Lewis lung carcinoma; Lewis lung, at OD on days 1, 5, 9, […], >40% statistically significant
  ILS (percentage increase in lifespan), marked *: 159%
Lewis lung carcinoma; Lewis lung
  active (Lewis lung): Y
Streptococcus faecalis
  antibacterial activity: active
Neisseria catarrhalis
  antibacterial activity: active
Sarcina lutea
  antibacterial activity: active

## CS(=O)(=O)Nc1ccc(Nc2c3ccccc3nc3ccccc23)cc1 [AMSA, 4'-(9-acridinylamino) methanesulphonanilide]
Mouse L1210 leukemia
  antitumour activity: good antitumour activity

## CNc1cc(NS(C)(=O)=O)ccc1Nc1c2ccccc2nc2ccccc12 [Compound 1]
[3]
  potency and antitumour activity (in words): increased potency and antitumour activity compared to the unsubstituted AMSA and the 3'-methoxy derivative m-AMSA (amsacrine)
P388 leukemia
  active (P388): Y
Lewis lung carcinoma; [4]
  ILS (percentage increase in lifespan): 85%
Lewis lung carcinoma; Lewis lung
  active (Lewis lung): Y

From patent US4795826A, “Ortho-phenylenediamine compounds” (priority 1986, dated 1989)
